{"source": "PubChem BioAssay AID651798", "about": "(Broad Institute, 2012)", "note": "The source made the active and inactive calls.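 How the source made its calls: active means fitted AC50 at or below twice the top valid dose, with signal falling as dose rises; inconclusive means flat fit between -30 and -70%, or poor fit; inactive means the rest, including rising effects.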", "data": [{"molecular_target": "Kelch-like ECH-associated protein 1 (Homo sapiens) (UniProt Q14145)", "sequence (Q14145 whole entry, looked up)": "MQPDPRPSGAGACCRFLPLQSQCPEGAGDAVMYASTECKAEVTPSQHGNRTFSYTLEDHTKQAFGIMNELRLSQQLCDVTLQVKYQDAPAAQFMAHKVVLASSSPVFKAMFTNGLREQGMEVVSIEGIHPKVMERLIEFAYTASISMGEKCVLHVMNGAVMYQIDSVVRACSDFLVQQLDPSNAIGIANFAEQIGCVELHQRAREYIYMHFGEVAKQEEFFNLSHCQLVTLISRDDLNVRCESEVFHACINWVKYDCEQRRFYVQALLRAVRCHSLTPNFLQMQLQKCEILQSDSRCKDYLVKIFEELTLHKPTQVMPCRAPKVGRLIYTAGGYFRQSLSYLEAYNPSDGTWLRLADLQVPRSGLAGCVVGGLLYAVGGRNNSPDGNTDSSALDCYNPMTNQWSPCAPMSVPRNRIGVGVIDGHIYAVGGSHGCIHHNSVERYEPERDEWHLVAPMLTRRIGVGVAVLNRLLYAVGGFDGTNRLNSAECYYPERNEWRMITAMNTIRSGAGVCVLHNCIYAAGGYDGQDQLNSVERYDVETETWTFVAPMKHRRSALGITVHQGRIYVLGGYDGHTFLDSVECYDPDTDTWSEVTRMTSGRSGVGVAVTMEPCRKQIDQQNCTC", "assay": "Keap1-Nrf2 protein-protein interaction inhibitors, dose response, biochemical, fluorescence polarization, dry powder samples (AID 651798)", "conditions": "Keap1 Kelch/FITC-Nrf2 peptide fluorescence polarization", "values": [{"smiles": "O=C(O)[C@H]1CCCC[C@H]1C(=O)N1CCC2=C(CCCC2)C1CN1C(=O)c2ccccc2C1=O", "note": "(some centres undefined)", "AC50": "> 100 µM (inactive)"}, {"smiles": "Cc1ccc(S(=O)(=O)Nc2cc(C(C(=O)OC(C)C)C(=O)C(F)(F)F)c(O)c3ccccc23)c(C)c1", "note": "(centres undefined)", "AC50": "2.26 µM"}, {"smiles": "COC(=O)C(C(=O)OC)c1cc(NS(=O)(=O)c2c(C)cc(C)cc2C)c2ccccc2c1O", "AC50": "34.2 µM"}, {"smiles": "O=C(O)[C@H]1C2C=CC(C2)[C@H]1C(=O)N1CCc2ccccc2C1CN1C(=O)c2ccccc2C1=O", "note": "(some centres undefined)", "AC50": "> 100 µM (inactive)"}, {"smiles": "O=C(O)C1CCCCC1C(=O)N1CCc2ccccc2C1CN1Cc2ccccc2C1=O", "note": "(centres undefined)", "AC50": "31.9 µM"}, {"smiles": "O=C(NCCc1ccccc1)c1ccccc1C(=O)NC[C@@H]1c2ccccc2CCN1C(=O)C1CCCCC1C(=O)O", "note": "(some centres undefined)", "AC50": "> 100 µM (inactive)"}, {"smiles": "O=C(O)C1CCCCC1C(=O)N1CCc2ccccc2C1CN1C(=O)Cc2ccccc2C1=O", "note": "(centres undefined)", "AC50": "> 100 µM (inactive)"}, {"smiles": "CC(=O)Nc1cc(NS(=O)(=O)c2c(C)cc(C)cc2C)c2ccccc2c1O", "AC50": "15.2 µM"}, {"smiles": "Cc1cc(C)c(S(=O)(=O)Nc2cc(C(C(=O)OC(C)C)C(=O)C(F)(F)F)c(O)c3ccccc23)c(C)c1", "note": "(centres undefined)", "AC50": "0.673 µM"}, {"smiles": "Cc1ccccc1S(=O)(=O)Nc1cc(C(C(=O)OC(C)C)C(=O)C(F)(F)F)c(O)c2ccccc12", "note": "(centres undefined)", "AC50": "3.2 µM"}, {"smiles": "Cc1ccc(S(=O)(=O)NC(=O)[C@@H]2c3ccccc3CCN2C(=O)[C@@H]2CCCC[C@@H]2C(=O)O)cc1", "AC50": "> 100 µM (inactive)"}, {"smiles": "O=C(O)Cc1ccccc1C(=O)N1CCc2ccccc2[C@H]1CN1C(=O)c2ccccc2C1=O", "AC50": "28.3 µM"}, {"smiles": "NC(=O)c1ccccc1C(=O)NC[C@@H]1c2ccccc2CCN1C(=O)[C@@H]1CCCC[C@@H]1C(=O)O", "AC50": "> 100 µM (inactive)"}, {"smiles": "O=C(O)C1CCCCC1C(=O)N1CCc2ccccc2C1CN1C(=O)[C@H]2CCCC[C@H]2C1=O", "note": "(some centres undefined)", "AC50": "> 100 µM (inactive)"}, {"smiles": "Cc1ccc(S(=O)(=O)Nc2cc(C(C(=O)OC(C)C)C(=O)C(F)(F)F)c(O)c3ccccc23)cc1", "note": "(centres undefined)", "AC50": "7.25 µM"}, {"smiles": "CC(C)OC(=O)C(C(=O)C(F)(F)F)c1cc(NS(=O)(=O)c2ccccc2)c2ccccc2c1O", "note": "(centres undefined)", "AC50": "21.8 µM"}]}, {"molecular_target": "Kelch-like ECH-associated protein 1 (Homo sapiens) (UniProt Q14145)", "assay": "Keap1-Nrf2 protein-protein interaction inhibitors, dose response, biochemical, fluorescence polarization, dry powder samples (AID 651798)", "conditions": "Keap1 Kelch/FITC-Nrf2 peptide fluorescence polarization; at 12 µM (top of the series)", "values": [{"smiles": "O=C1c2ccccc2C(=O)N1CC1c2ccccc2CCN1C(=O)Cc1ccccc1", "note": "(centres undefined)", "activity change, negative = inhibition": "inactive"}]}, {"molecular_target": "Kelch-like ECH-associated protein 1 (Homo sapiens) (UniProt Q14145)", "assay": "Keap1-Nrf2 protein-protein interaction inhibitors, dose response, biochemical, fluorescence polarization, dry powder samples (AID 651798)", "conditions": "Keap1 Kelch/FITC-Nrf2 peptide fluorescence polarization; at 50 µM (top of the series)", "values": [{"smiles": "O=C(O)c1ccccc1C(=O)NC[C@@H]1c2ccccc2CCN1C(=O)[C@@H]1CCCC[C@@H]1C(=O)O", "activity change, negative = inhibition": "inactive"}, {"smiles": "Cc1cc(C)c(S(=O)(=O)Nc2nc(NCCO)nc3ccccc23)c(C)c1", "activity change, negative = inhibition": "inactive"}, {"smiles": "O=C(O)CC(=O)N1CCc2ccccc2C1CN1C(=O)c2ccccc2C1=O", "note": "(centres undefined)", "activity change, negative = inhibition": "inactive"}, {"smiles": "Cc1cc(C)c(S(=O)(=O)Nc2nc(N(C)C)nc3ccccc23)c(C)c1", "activity change, negative = inhibition": "inactive"}, {"smiles": "COC(=O)CNc1nc(NS(=O)(=O)c2c(C)cc(C)cc2C)c2ccccc2n1", "activity change, negative = inhibition": "inactive"}, {"smiles": "COC(=O)[C@@H]1CCCC[C@@H]1C(=O)N1CCc2ccccc2[C@@H]1CN1C(=O)c2ccccc2C1=O", "activity change, negative = inhibition": "inactive"}, {"smiles": "COC(=O)[C@H]1CCCC[C@H]1C(=O)N1CCc2ccccc2[C@H]1CN1C(=O)c2ccccc2C1=O", "activity change, negative = inhibition": "inactive"}, {"smiles": "O=C(O)[C@@H]1CCCN1C(=O)N1CCc2ccccc2[C@H]1CN1C(=O)c2ccccc2C1=O", "activity change, negative = inhibition": "inactive"}, {"smiles": "O=C(O)C1CCCCC1C(=O)N1CCc2ccccc2C1c1ccccc1", "note": "(centres undefined)", "activity change, negative = inhibition": "inactive"}, {"smiles": "O=C(O)C1CCCCC1C(=O)N1CCCCC1CN1C(=O)c2ccccc2C1=O", "note": "(centres undefined)", "activity change, negative = inhibition": "inactive"}, {"smiles": "O=C(O)[C@H]1CCCC[C@H]1C(=O)N1CCC2=C(CCCC2)C1CN1C(=O)c2ccccc2C1=O", "note": "(some centres undefined)", "activity change, negative = inhibition": "inactive"}, {"smiles": "Cc1ccc(S(=O)(=O)NC2=CC(=N[C@@H](C)C(=O)OC(C)(C)C)C(=O)c3ccccc32)c(C)c1", "activity change, negative = inhibition": "inactive"}, {"smiles": "CCOC(=O)C(C(=O)OCC)c1cc(CNS(=O)(=O)c2ccc(C)cc2C)c2ccccc2n1", "activity change, negative = inhibition": "inactive"}, {"smiles": "Cc1ccc(S(=O)(=O)NNc2nc(NCC(N)=O)nc3ccccc23)cc1", "activity change, negative = inhibition": "inactive"}, {"smiles": "O=C(Cc1ccccc1)NC[C@@H]1c2ccccc2CCN1C(=O)[C@@H]1CCCC[C@@H]1C(=O)O", "activity change, negative = inhibition": "inactive"}, {"smiles": "O=C(O)C1CCCCC1C(=O)N1CCc2ccccc2[C@H]1C(=O)NCCc1ccccc1", "note": "(some centres undefined)", "activity change, negative = inhibition": "inactive"}, {"smiles": "Cc1ccc(S(=O)(=O)NC[C@@H]2c3ccccc3CCN2C(=O)[C@@H]2CCCC[C@@H]2C(=O)O)c(C)c1", "activity change, negative = inhibition": "inactive"}, {"smiles": "O=C(O)[C@H]1CCCC[C@H]1C(=O)N1CCc2ccccc2C1", "note": "(racemic)", "activity change, negative = inhibition": "inactive"}, {"smiles": "O=C(NC[C@@H]1c2ccccc2CCN1C(=O)[C@@H]1CCCC[C@@H]1C(=O)O)c1ccc(CN2CCOCC2)cc1", "activity change, negative = inhibition": "inactive"}, {"smiles": "O=C(NCCO)c1ccccc1C(=O)NC[C@@H]1c2ccccc2CCN1C(=O)C1CCCCC1C(=O)O", "note": "(some centres undefined)", "activity change, negative = inhibition": "inactive"}, {"smiles": "O=C(O)[C@H]1CCCC[C@H]1C(=O)N1CCc2ccccc2[C@H]1CNc1nc(Cl)nc2ccccc12", "activity change, negative = inhibition": "inactive"}, {"smiles": "Cc1ccc(S(=O)(=O)NNc2nc(C(C(=O)OC(C)C)C(=O)C(F)(F)F)nc3ccccc23)cc1", "note": "(centres undefined)", "activity change, negative = inhibition": "inactive"}]}]}
